From ChEMBL document CHEMBL3286148, “Aminoazabenzimidazoles, a novel class of orally active antimalarial agents” (J Med Chem, 2014)
In brackets after ≈: the same amount, converted by molar mass.

Tests used:
Plasmodium falciparum [1] = assay: microbe, parasite or virus in culture; conditions: Dd2, 72 h
Description: Antiplasmodial activity against Plasmodium falciparum Dd2 after 72 hrs by SYBR I method

Plasmodium falciparum [2] = assay: microbe, parasite or virus in culture; conditions: SB1, 72 h
Description: Antiplasmodial activity against Plasmodium falciparum SB1 after 72 hrs by SYBR I method

Plasmodium falciparum [3] = assay: microbe, parasite or virus in culture; conditions: K1, 72 h
[4] = Selectivity index, ratio of IC50 for human A549 cells to IC50 for Plasmodium falciparum; format: toxicity, cell-based; conditions: read-out: Ratio IC50
Plasmodium falciparum [5] = assay: microbe, parasite or virus in culture; conditions: 7G8, 72 h
Description: Antiplasmodial activity against Plasmodium falciparum 7G8 after 72 hrs by SYBR I method

Plasmodium falciparum [6] = assay: microbe, parasite or virus in culture; conditions: NF54, 72 h
Plasmodium falciparum [7] = assay: microbe, parasite or virus in culture; conditions: W2, 72 h
Description: Antiplasmodial activity against Plasmodium falciparum W2 after 72 hrs by SYBR I method

[8] = biological target: Voltage-gated inwardly rectifying potassium channel KCNH2 (Homo sapiens, UniProt Q12809); assay: Inhibition of human ERG
[9] = Clearance in human liver microsomes; format: ADME; conditions: read-out: CLH
[10] = Clearance in mouse liver microsomes; format: ADME; conditions: read-out: CLH
[11] = Clearance in rat hepatocytes assessed per 1E6 cells; format: ADME, cell-based, Hepatocyte; conditions: read-out: CLH
Cytochrome P450 2C19 = Cytochrome P450 2C19 (Homo sapiens, UniProt P33261); assay: Inhibition of CYP2C19 (unknown origin); format: ADME
Cytochrome P450 3A4 = Cytochrome P450 3A4 (Homo sapiens, UniProt P08684); assay: Inhibition of CYP3A4 (unknown origin); format: ADME
Cytochrome P450 2C9 = Cytochrome P450 2C9 (Homo sapiens, UniProt P11712); assay: Inhibition of CYP2C9 (unknown origin); format: ADME
[12] = Fraction unbound in human plasma; format: ADME, cell-free
Cytochrome P450 1A2 = biological target: T1, Cytochrome P450 1A2 (Homo sapiens, UniProt P05177); assay: Inhibition of CYP1A2 (unknown origin); format: ADME
T1 sequence (P05177 whole entry): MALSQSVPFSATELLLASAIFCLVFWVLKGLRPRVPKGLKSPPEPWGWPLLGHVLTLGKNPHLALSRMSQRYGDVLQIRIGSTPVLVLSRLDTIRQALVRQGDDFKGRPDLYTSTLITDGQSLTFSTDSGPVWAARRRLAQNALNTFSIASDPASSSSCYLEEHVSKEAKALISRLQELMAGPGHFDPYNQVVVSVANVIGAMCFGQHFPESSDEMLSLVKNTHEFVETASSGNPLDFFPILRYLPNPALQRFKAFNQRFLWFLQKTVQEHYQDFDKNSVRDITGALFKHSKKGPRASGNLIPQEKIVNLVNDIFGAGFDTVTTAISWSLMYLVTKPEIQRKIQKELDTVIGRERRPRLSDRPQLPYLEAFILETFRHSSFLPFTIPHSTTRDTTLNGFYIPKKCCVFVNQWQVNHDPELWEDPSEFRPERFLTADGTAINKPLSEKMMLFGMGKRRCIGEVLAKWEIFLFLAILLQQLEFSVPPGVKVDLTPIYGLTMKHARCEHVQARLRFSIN

[13] = Aqueous solubility of the compound; format: physicochemical; conditions: buffer
Cytochrome P450 2D6 = Cytochrome P450 2D6 (Homo sapiens, UniProt P10635); assay: Inhibition of CYP2D6 (unknown origin); format: ADME
[14] = Lipophilicity, log D of the compound; format: physicochemical; conditions: octanol/water
Plasmodium falciparum [15] = assay: Antiplasmodial activity against Plasmodium falciparum Dd2 harboring DHODH mutant; format: functional, organism-based
Plasmodium falciparum [16] = assay: Antiplasmodial activity against Plasmodium falciparum Dd2; format: functional, organism-based
Plasmodium falciparum [17] = assay: Antiplasmodial activity against Plasmodium falciparum Dd2 harboring CYTb-Qi mutant; format: functional, organism-based
Plasmodium falciparum [18] = assay: Antiplasmodial activity against Plasmodium falciparum Dd2 harboring CRT mutant; format: functional, organism-based

Sequence of Voltage-gated inwardly rectifying potassium channel KCNH2 (Q12809 whole entry): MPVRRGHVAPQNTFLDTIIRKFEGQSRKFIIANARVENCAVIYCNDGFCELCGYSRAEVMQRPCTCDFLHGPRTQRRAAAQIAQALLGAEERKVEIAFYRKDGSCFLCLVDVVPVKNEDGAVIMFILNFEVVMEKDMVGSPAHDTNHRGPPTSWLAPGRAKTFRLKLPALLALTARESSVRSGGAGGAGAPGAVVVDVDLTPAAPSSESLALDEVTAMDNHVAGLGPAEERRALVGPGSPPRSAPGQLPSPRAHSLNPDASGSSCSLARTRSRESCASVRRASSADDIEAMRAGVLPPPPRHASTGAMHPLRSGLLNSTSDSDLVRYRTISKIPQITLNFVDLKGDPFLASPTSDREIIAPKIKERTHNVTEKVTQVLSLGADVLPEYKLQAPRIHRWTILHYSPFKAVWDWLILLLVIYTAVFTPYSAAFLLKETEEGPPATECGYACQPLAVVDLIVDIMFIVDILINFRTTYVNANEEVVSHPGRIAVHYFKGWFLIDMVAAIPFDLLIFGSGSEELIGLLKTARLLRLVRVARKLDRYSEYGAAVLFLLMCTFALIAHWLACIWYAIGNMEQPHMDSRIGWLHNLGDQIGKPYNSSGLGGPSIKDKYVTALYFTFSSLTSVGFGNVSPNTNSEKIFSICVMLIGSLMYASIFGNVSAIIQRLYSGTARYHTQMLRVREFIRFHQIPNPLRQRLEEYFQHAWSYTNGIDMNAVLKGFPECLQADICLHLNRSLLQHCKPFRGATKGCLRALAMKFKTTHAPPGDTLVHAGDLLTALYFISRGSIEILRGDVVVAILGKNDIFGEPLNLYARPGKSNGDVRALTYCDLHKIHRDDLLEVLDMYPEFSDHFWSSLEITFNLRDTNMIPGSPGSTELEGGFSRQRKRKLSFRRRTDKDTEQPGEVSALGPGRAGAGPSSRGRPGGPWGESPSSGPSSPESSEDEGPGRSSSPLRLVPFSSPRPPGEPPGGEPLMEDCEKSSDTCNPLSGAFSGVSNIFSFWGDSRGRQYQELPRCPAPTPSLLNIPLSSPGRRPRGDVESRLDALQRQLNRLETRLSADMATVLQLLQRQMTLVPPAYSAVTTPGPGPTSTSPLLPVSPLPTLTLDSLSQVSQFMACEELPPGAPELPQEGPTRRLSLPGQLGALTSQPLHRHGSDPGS
Sequence of Cytochrome P450 2C19 (P33261 whole entry): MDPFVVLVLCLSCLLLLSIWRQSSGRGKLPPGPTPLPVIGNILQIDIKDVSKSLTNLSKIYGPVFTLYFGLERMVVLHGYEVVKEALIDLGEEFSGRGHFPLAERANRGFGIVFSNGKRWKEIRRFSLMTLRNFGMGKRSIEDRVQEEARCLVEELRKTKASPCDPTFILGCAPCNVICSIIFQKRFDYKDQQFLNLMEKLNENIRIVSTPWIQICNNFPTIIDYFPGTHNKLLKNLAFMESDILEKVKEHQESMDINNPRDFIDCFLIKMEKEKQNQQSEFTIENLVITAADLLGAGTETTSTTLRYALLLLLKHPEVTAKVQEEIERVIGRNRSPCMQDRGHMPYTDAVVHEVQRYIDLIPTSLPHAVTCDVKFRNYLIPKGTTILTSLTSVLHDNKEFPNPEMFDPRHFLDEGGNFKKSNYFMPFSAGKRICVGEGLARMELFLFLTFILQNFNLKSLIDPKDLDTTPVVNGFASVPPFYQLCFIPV
Sequence of Cytochrome P450 3A4 (P08684 whole entry): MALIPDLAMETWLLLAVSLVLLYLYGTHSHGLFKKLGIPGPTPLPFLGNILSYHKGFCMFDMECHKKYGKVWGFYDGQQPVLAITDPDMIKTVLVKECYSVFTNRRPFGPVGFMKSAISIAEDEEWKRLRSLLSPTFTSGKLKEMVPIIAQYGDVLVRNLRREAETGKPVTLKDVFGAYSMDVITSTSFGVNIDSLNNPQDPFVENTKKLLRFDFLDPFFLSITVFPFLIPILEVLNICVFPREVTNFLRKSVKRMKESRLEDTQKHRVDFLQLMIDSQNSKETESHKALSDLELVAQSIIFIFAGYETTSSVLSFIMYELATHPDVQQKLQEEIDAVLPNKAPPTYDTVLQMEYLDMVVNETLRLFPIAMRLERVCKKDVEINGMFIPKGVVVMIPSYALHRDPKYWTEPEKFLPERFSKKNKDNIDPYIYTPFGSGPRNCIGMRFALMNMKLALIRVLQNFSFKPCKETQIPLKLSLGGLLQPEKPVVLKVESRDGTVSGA
Sequence of Cytochrome P450 2D6 (P10635 whole entry): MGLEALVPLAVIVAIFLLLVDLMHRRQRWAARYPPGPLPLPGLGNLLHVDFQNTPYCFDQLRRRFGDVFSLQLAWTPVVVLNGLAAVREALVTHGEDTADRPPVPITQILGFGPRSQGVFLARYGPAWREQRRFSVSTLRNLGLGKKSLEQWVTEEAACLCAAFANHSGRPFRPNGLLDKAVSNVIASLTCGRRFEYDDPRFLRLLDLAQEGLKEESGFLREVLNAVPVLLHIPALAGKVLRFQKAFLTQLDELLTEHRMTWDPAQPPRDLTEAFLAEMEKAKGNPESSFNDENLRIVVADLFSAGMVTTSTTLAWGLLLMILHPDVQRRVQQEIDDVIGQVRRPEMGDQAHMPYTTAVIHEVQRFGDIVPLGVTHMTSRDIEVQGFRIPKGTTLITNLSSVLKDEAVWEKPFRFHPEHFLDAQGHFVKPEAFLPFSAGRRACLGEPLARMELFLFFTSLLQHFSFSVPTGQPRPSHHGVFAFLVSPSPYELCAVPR
Sequence of Cytochrome P450 2C9 (P11712 whole entry): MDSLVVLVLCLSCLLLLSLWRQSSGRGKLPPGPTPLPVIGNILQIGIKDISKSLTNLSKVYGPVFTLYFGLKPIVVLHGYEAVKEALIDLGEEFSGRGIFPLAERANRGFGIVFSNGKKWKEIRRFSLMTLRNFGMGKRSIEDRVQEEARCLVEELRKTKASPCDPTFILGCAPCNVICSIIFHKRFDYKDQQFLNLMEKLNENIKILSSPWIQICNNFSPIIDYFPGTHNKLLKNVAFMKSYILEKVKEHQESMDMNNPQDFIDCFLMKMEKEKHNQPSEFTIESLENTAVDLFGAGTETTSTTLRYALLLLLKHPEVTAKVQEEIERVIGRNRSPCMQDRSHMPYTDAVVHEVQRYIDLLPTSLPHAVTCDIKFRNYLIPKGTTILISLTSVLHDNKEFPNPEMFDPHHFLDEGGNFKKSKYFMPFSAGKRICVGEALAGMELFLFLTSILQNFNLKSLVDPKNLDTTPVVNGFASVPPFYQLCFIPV

SMILES | IC50 (Plasmodium falciparum [3]) | selectivity ratio [4] | IC50 (Plasmodium falciparum [6]) | IC50 [8] | microsomal CLint [9] | hepatocyte CLint [11] | further results
Nc1nc2ccccc2n1-c1ccccc1O | 54 nM | 1190 | 84 nM | – | – | – | IC50 (Plasmodium falciparum [1]): 329 nM; IC50 (Plasmodium falciparum [2]): 164 nM; IC50 (Plasmodium falciparum [5]): 66.1 nM; IC50 (Plasmodium falciparum [7]): 260 nM
Nc1nccn1CC(O)c1ccc(Cl)cc1Cl (racemic) | 280 nM | > 263 | 380 nM | – | – | – | –
Nc1nccn1CC(O)c1ccc(Cl)cc1F (racemic) | > 2000 nM | > 50 | > 2000 nM | 60000 nM | – | – | –
Cc1cc(Cl)ccc1C(O)Cn1ccnc1N (racemic) | > 2000 nM | > 50 | > 2000 nM | – | – | – | –
Nc1nccn1CC(O)c1cccc(Cl)c1Cl (racemic) | 230 nM | – | 350 nM | – | – | – | –
Cc1cn(CC(O)c2ccc(Cl)cc2Cl)c(N)n1 (racemic) | 250 nM | – | 380 nM | – | – | – | –
Cc1nc(N)n(CC(O)c2ccc(Cl)cc2Cl)c1C (racemic) | 200 nM | 220 | 300 nM | > 33300 nM | – | – | –
Nc1nc(C2CC2)cn1CC(O)c1ccc(Cl)cc1Cl (racemic) | 70 nM | 241 | 120 nM | 4500 nM | – | – | –
Nc1nc(-c2ccc(F)cc2)cn1CC(O)c1ccc(C(F)(F)F)cc1Cl (racemic) | 60 nM | 72 | 140 nM | 25000 nM | – | – | –
Nc1nc2ccccc2n1CC(O)c1ccc(Cl)cc1Cl (racemic) | 7 nM | – | 18 nM | – | 25 µL/min/mg | 155 µL/min/1e6 cells | IC50 (Plasmodium falciparum [1]): 30 nM; IC50 (Plasmodium falciparum [2]): 42.5 nM; microsomal CLint [10]: 213 µL/min/mg; IC50 (Plasmodium falciparum [5]): 4.09 nM; IC50 (Plasmodium falciparum [7]): 11.6 nM
N#Cc1ccc2nc(N)n(CC(O)c3cccc(Cl)c3Cl)c2c1 (racemic) | 300 nM | – | 29 nM | – | 96 µL/min/mg | 53 µL/min/1e6 cells | –
CS(=O)(=O)c1ccc2nc(N)n(CC(O)c3cccc(Cl)c3Cl)c2c1 (racemic) | > 2000 nM | > 50 | > 2000 nM | > 33300 nM | 68 µL/min/mg | 44 µL/min/1e6 cells | –
Nc1nc2ccc(Cl)cc2n1CC(O)c1cccc(Cl)c1Cl (racemic) | 40 nM | 2.3 | 320 nM | > 33300 nM | 49 µL/min/mg | 22 µL/min/1e6 cells | –
Nc1nc2ccc(C(F)(F)F)cc2n1CC(O)c1ccc(C(F)(F)F)cc1Cl (racemic) | 10 nM | 94 | 53 nM | > 10500 nM | 9 µL/min/mg | 31 µL/min/1e6 cells | IC50 (Cytochrome P450 2C19): 2700 nM; IC50 (Cytochrome P450 3A4): > 30000 nM; IC50 (Cytochrome P450 2C9): 27900 nM; fraction unbound [12]: < 0.01; IC50 (Cytochrome P450 1A2): 29400 nM; solubility [13]: 3 µM (≈ 1.27 µg/mL); IC50 (Cytochrome P450 2D6): 26300 nM; IC50 (Plasmodium falciparum [1]): 48.7 nM; IC50 (Plasmodium falciparum [2]): 121 nM; microsomal CLint [10]: 62 µL/min/mg; IC50 (Plasmodium falciparum [5]): 3.25 nM; logD [14]: > 4.6; IC50 (Plasmodium falciparum [7]): 24.1 nM
Nc1nc2cnccc2n1CC(O)c1ccc(Cl)cc1Cl (racemic) | > 500 nM | > 25 | > 2000 nM | – | 5 µL/min/mg | 14 µL/min/1e6 cells | microsomal CLint [10]: 41 µL/min/mg
Nc1nc2cccnc2n1CC(O)c1cccc(Cl)c1Cl (racemic) | 180 nM | 26 | 340 nM | > 33300 nM | 69 µL/min/mg | 110 µL/min/1e6 cells | IC50 (Cytochrome P450 2C19): 10200 nM; IC50 (Cytochrome P450 3A4): > 30000 nM; IC50 (Cytochrome P450 2C9): > 30000 nM; fraction unbound [12]: 0.118; IC50 (Cytochrome P450 1A2): 5200 nM; solubility [13]: 26 µM (≈ 8.4 µg/mL); IC50 (Cytochrome P450 2D6): > 30000 nM; logD [14]: 3
Nc1nc2ccc(NCC(F)(F)F)nc2n1CC(O)c1ccc(Cl)cc1Cl (racemic) | 14 nM | 375 | 40 nM | 3500 nM | 17 µL/min/mg | 198 µL/min/1e6 cells | microsomal CLint [10]: 87 µL/min/mg
Nc1nc2ccc(C3CC3)nc2n1CC(O)c1ccc(Cl)cc1Cl (racemic) | 22 nM | > 260 | 96 nM | – | 47 µL/min/mg | 94 µL/min/1e6 cells | microsomal CLint [10]: > 130 µL/min/mg
Nc1nc2ccc(C(=O)NC3CC3)nc2n1CC(O)c1ccc(Cl)cc1Cl (racemic) | > 500 nM | > 10 | > 2000 nM | – | – | – | –
Nc1nc2ccc(OC3CNC3)nc2n1CC(O)c1ccc(C(F)(F)F)cc1Cl (racemic) | > 500 nM | > 50 | > 2000 nM | > 33300 nM | < 4 µL/min/mg | 14 µL/min/1e6 cells | –
Nc1nnc(C2CC2)n1CC(O)c1ccc(C(F)(F)F)cc1Cl (racemic) | > 2000 nM | > 50 | > 2000 nM | – | – | – | –
Nc1nnnn1CC(O)c1c(Cl)cccc1Cl (racemic) | > 2000 nM | > 50 | > 2000 nM | – | – | – | –
Nc1ncccc1CC(O)c1cccc(Cl)c1Cl (racemic) | 50 nM | 294 | 180 nM | – | – | – | IC50 (Plasmodium falciparum [1]): 410 nM; IC50 (Plasmodium falciparum [2]): 472 nM; IC50 (Plasmodium falciparum [5]): 29.2 nM; IC50 (Plasmodium falciparum [7]): 110 nM
NC1=Nc2ccccc2CN1CC(O)c1ccc(Cl)cc1Cl (racemic) | 25 nM | 141 | 177 nM | – | – | – | –
O=C1C(O)=C([C@H]2CC[C@H](c3ccc(Cl)cc3)CC2)C(=O)c2ccccc21 [ATOVAQUONE] | 2.26 nM | – | 1.36 nM | – | – | – | IC50 (Plasmodium falciparum [2]): > 2000 nM; IC50 (Plasmodium falciparum [5]): 2.32 nM; IC50 (Plasmodium falciparum [7]): 1.16 nM
COC1=C2C[C@@H](C)C[C@H](OC)[C@H](O)[C@@H](C)/C=C(\C)[C@H](OC(N)=O)[C@@H](OC)/C=C\C=C(/C)C(=O)NC(=CC1=O)C2=O [GELDANAMYCIN] | – | – | – | – | – | – | IC50 (Plasmodium falciparum [15]): 257 nM; IC50 (Plasmodium falciparum [16]): 176 nM; IC50 (Plasmodium falciparum [17]): 169 nM; IC50 (Plasmodium falciparum [18]): 204 nM
CCc1nc(N)nc(N)c1-c1ccc(Cl)cc1 [PYRIMETHAMINE] | 8560 nM | – | 28.3 nM | – | – | – | IC50 (Plasmodium falciparum [1]): 13800 nM; IC50 (Plasmodium falciparum [2]): 10.8 nM; IC50 (Plasmodium falciparum [5]): 10000 nM; IC50 (Plasmodium falciparum [7]): 15400 nM
